The text below walks through data of US20250101028A1, “HETEROCYCLIC COMPOUNDS, COMPOSITIONS THEREOF, AND METHODS OF TREATMENT THEREWITH” (BeiGene, Ltd., priority 2022, published 2025).

For the test, the target named is T1, GST-tagged GDP-loaded KRAS G12V (amino acids 1-169) (Homo sapiens, UniProt P01116, G12V).
T1 construct: GST-tagged GDP-loaded KRAS G12V (amino acids 1-169); made in house; host or cells: E. coli
As to the kind of experiment: KRAS G12V probe displacement assay (TR-FRET). The class given is binding. To be noted: displacement of biotinylated probe 2 from GDP-loaded KRAS G12V. How it is done:
KRAS WT and KRAS G12V Probe Displacement Assay
This assay was used to identify compounds which bind to GDP-loaded KRAS protein and are able to displace a biotinylated probe occupying the KRAS binding site. GST-tagged GDP-loaded WT KRAS (amino acids 1-169) and GST-tagged GDP-loaded KRAS G12V (amino acids 1-169) were expressed in E. coli and purified in house. All protein and reaction solutions were prepared in assay buffer containing 50 mM HEPES pH7.5, 50 mM NaCl, 1 mM MgCl2, 1 mM TCEP, 0.01% BSA, and 0.008% Brij-35. Purified WT KRAS (3 nM final concentration) or KRAS G12V protein (2 nM final concentration) was incubated with a 3-fold serially diluted compound in the assay plate (384 well microplate, black, Corning). Plates are incubated at 24° C. for 1 hr. Following the incubation, biotinylated probe 1 (60 nM final assay concentration) for WT KRAS and biotinylated probe 2 (2.5 nM final assay concentration) for KRAS G12V was added to the assay plate, respectively. After 1 hr incubation at 24° C., Mab Anti-GST-Tb cryptate (Cisbio) and Streptavidin-XL665 (Cisbio) were added and further incubated at 24° C. for another 1 hr. The TR-FRET signals (ex337 nm, em665 nm/620 nm) were read on BMG PHERAstar FSX instrument. The inhibition percentage of KRAS protein binding with biotinylated probe in presence of increasing concentrations of compounds was calculated based on the ratio of fluorescence at 665 nm to that at 620 nm. The IC50 value of each compound was calculated from fitting the data to the four-parameter logistic model by Dotmatics.
In general terms: TR-FRET usually uses a lanthanide donor and a delayed reading to cut background.

T1 sequence (P01116 1-169 isoform P01116-2 G12V): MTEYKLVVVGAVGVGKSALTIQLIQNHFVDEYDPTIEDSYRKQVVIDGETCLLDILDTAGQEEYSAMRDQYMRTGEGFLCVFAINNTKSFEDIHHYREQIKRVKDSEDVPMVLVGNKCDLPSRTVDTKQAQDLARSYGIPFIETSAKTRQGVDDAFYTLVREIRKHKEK

Usually IC50 stands for the point on the concentration scale where inhibition reaches its midpoint. On to `N#CCC1CN(c2nc(OC[C@@]34CCCN3C[C@H](F)C4)nc3c(F)c(-c4ccc(F)c5sc(N)nc45)c(C(F)(F)F)cc23)C1` [Example 40, 2-(1-(7-(2-amino-7-fluorobenzo[d]thiazol-4-yl)-8-fluoro-2-(((2R,7aS)-2-fluorotetrahydro-1H-pyrrolizin-7a(5H)-yl)methoxy)-6-(trifluoromethyl)quinazolin-4-yl)azetidin-3-yl)acetonitrile], for which the IC50 turned out to be 12 nM. This lies in the double-digit nanomolar range.

For `CS(=O)(=O)C1CN(c2nc(OC[C@@]34CCCN3C[C@H](F)C4)nc3c(F)c(-c4ccc(F)c5sc(N)nc45)c(C(F)(F)F)cc23)C1` [Example 44, 7-fluoro-4-(8-fluoro-2-(((2R,7aS)-2-fluorotetrahydro-1H-pyrrolizin-7a(5H)-yl)methoxy)-4-(3-(methylsulfonyl)azetidin-1-yl)-6-(trifluoromethyl)quinazolin-7-yl)benzo[d]thiazol-2-amine], the IC50 is 14 nM.

`Nc1nc2c(-c3c(C(F)(F)F)cc4c(N5CCC6(CC5)CNC(=O)CO6)nc(OC[C@@]56CCCN5C[C@H](F)C6)nc4c3F)ccc(F)c2s1` [Example 98, 9-(7-(2-amino-7-fluorobenzo[d]thiazol-4-yl)-8-fluoro-2-(((2R,7aS)-2-fluorotetrahydro-1H-pyrrolizin-7a(5H)-yl)methoxy)-6-(trifluoromethyl)quinazolin-4-yl)-1-oxa-4,9-diazaspiro[5.5]undecan-3-one] registered an IC50 of 51 nM.

The compound `C[C@@H]1COCCN1c1nc(OC[C@@]23CCCN2C[C@H](F)C3)nc2c(F)c(-c3cc(N)cc(Cl)c3C(F)(F)F)ncc12` [Example 115, 3-chloro-5-(8-fluoro-2-(((2R,7aS)-2-fluorotetrahydro-1H-pyrrolizin-7a(5H)-yl)methoxy)-4-((R)-3-methylmorpholino)pyrido[4,3-d]pyrimidin-7-yl)-4-(trifluoromethyl)aniline] yielded an IC50 of 6.5 nM.

For the compound `CO[C@H]1C[C@H](Nc2nc(OC[C@@]34CCCN3C[C@H](F)C4)nc3c(F)c(-c4ccc(F)c5sc(N)nc45)c(C(F)(F)F)cc23)C1` [Example 14, 7-fluoro-4-(8-fluoro-2-(((2R,7aS)-2-fluorotetrahydro-1H-pyrrolizin-7a(5H)-yl)methoxy)-4-(((trans)-3-methoxycyclobutyl)amino)-6-(trifluoromethyl)quinazolin-7-yl)benzo[d]thiazol-2-amine], the IC50 turned out to be 13 nM.

`CC1(C)CCCN1c1nc(OC[C@@]23CCCN2C[C@H](F)C3)nc2c(F)c(-c3ccc(F)c4sc(N)nc34)c(C(F)(F)F)cc12` [Example 57, 4-(4-(2,2-dimethylpyrrolidin-1-yl)-8-fluoro-2-(((2R,7aS)-2-fluorotetrahydro-1H-pyrrolizin-7a(5H)-yl)methoxy)-6-(trifluoromethyl)quinazolin-7-yl)-7-fluorobenzo[d]thiazol-2-amine] came in with a half-maximal inhibitory concentration (IC50) of 180 nM.

`Nc1cc(Cl)c(C(F)(F)F)c(-c2ncc3c(NC4CCC4)nc(OC[C@@]45CCCN4C[C@H](F)C5)nc3c2F)c1` [Example 111, 7-(5-amino-3-chloro-2-(trifluoromethyl)phenyl)-N-cyclobutyl-8-fluoro-2-(((2R,7aS)-2-fluorotetrahydro-1H-pyrrolizin-7a(5H)-yl)methoxy) pyrido[4,3-d]pyrimidin-4-amine] yielded an IC50 of 40 nM.

For the compound `CN1CC2(CCN(c3nc(OC[C@@]45CCCN4C[C@H](F)C5)nc4c(F)c(-c5ccc(F)c6sc(N)nc56)c(C(F)(F)F)cc34)CC2)CC1=O` [Example 97, 8-(7-(2-amino-7-fluorobenzo[d]thiazol-4-yl)-8-fluoro-2-(((2R,7aS)-2-fluorotetrahydro-1H-pyrrolizin-7a(5H)-yl)methoxy)-6-(trifluoromethyl)quinazolin-4-yl)-2-methyl-2,8-diazaspiro[4.5]decan-3-one], the IC50 came out at 3.8 nM.

`N#CCC1CCN(c2nc(OC[C@@]34CCCN3C[C@H](F)C4)nc3c(F)c(-c4ccc(F)c5sc(N)nc45)c(C(F)(F)F)cc23)C1` (stereo partly drawn) [Example 61, 2-(1-(7-(2-amino-7-fluorobenzo[d]thiazol-4-yl)-8-fluoro-2-(((2R,7aS)-2-fluorotetrahydro-1H-pyrrolizin-7a(5H)-yl)methoxy)-6-(trifluoromethyl)quinazolin-4-yl)pyrrolidin-3-yl)acetonitrile] gave an IC50 of 14 nM.

Compound `CC1(C#N)CCN(c2nc(OC[C@@]34CCCN3C[C@H](F)C4)nc3c(F)c(-c4ccc(F)c5sc(N)nc45)c(C(F)(F)F)cc23)CC1` [Example 69, 1-(7-(2-amino-7-fluorobenzo[d]thiazol-4-yl)-8-fluoro-2-(((2R,7aS)-2-fluorotetrahydro-1H-pyrrolizin-7a(5H)-yl)methoxy)-6-(trifluoromethyl)quinazolin-4-yl)-4-methylpiperidine-4-carbonitrile] came in with an IC50 of 17 nM.

As to `N#C[C@@H]1CCN(c2nc(OC[C@@]34CCCN3C[C@H](F)C4)nc3c(F)c(-c4ccc(F)c5sc(N)nc45)c(C(F)(F)F)cc23)C[C@H]1O` (mixture of isomers) [Example 75, 1-(7-(2-amino-7-fluorobenzo[d]thiazol-4-yl)-8-fluoro-2-(((2R,7aS)-2-fluorotetrahydro-1H-pyrrolizin-7a(5H)-yl)methoxy)-6-(trifluoromethyl)quinazolin-4-yl)-trans-3-hydroxypiperidine-4-carbonitrile], the IC50 came out at 3.8 nM.

For `Nc1nc2c(-c3c(C(F)(F)F)cc4c(NC5CC6(CCC6)C5)nc(OC[C@@]56CCCN5C[C@H](F)C6)nc4c3F)ccc(F)c2s1` [Example 22, 7-fluoro-4-(8-fluoro-2-(((2R,7aS)-2-fluorotetrahydro-1H-pyrrolizin-7a(5H)-yl)methoxy)-4-(spiro[3.3]heptan-2-ylamino)-6-(trifluoromethyl)quinazolin-7-yl)benzo[d]thiazol-2-amine], the IC50 amounted to 367 nM.

For the compound `Nc1cc(Cl)c(C(F)(F)F)c(-c2ncc3c(N4CCC(O)CC4)nc(OC[C@@]45CCCN4C[C@H](F)C5)nc3c2F)c1` [Example 127, 1-(7-(5-amino-3-chloro-2-(trifluoromethyl)phenyl)-8-fluoro-2-(((2R,7aS)-2-fluorotetrahydro-1H-pyrrolizin-7a(5H)-yl)methoxy)pyrido[4,3-d]pyrimidin-4-yl)piperidin-4-ol], the IC50 was found to be 21 nM.

`Nc1nc2c(-c3c(C(F)(F)F)cc4c(NC5CCC5)nc(OC[C@@]56CCCN5C[C@H](F)C6)nc4c3F)ccc(F)c2s1` [Example 10, 4-(4-(cyclobutylamino)-8-fluoro-2-(((2R,7aS)-2-fluorotetrahydro-1H-pyrrolizin-7a(5H)-yl)methoxy)-6-(trifluoromethyl)quinazolin-7-yl)-7-fluorobenzo[d]thiazol-2-amine]: the IC50 was found to be 19 nM.

Turning to `COC1CC1Nc1nc(OC[C@@]23CCCN2C[C@H](F)C3)nc2c(F)c(-c3ccc(F)c4sc(N)nc34)c(C(F)(F)F)cc12` (stereo partly drawn) [Example 6, 7-fluoro-4-(8-fluoro-2-(((2R,7aS)-2-fluorotetrahydro-1H-pyrrolizin-7a(5H)-yl)methoxy)-4-((2-methoxycyclopropyl)amino)-6-(trifluoromethyl)quinazolin-7-yl)benzo[d]thiazol-2-amine], the IC50 was found to be 54 nM.

In turn, `CO[C@H]1C[C@@H](Nc2nc(OC[C@@]34CCCN3C[C@H](F)C4)nc3c(F)c(-c4ccc(F)c5sc(N)nc45)c(C(F)(F)F)cc23)C1` [Example 13, 7-fluoro-4-(8-fluoro-2-(((2R,7aS)-2-fluorotetrahydro-1H-pyrrolizin-7a(5H)-yl)methoxy)-4-(((cis)-3-methoxycyclobutyl)amino)-6-(trifluoromethyl)quinazolin-7-yl)benzo[d]thiazol-2-amine] registered an IC50 of 20 nM.

For the compound `N#CCC1CCN(c2nc(OC[C@@]34CCCN3C[C@H](F)C4)nc3c(F)c(-c4cc(N)cc(Cl)c4C(F)(F)F)ncc23)CC1` [Example 125, 2-(1-(7-(5-amino-3-chloro-2-(trifluoromethyl)phenyl)-8-fluoro-2-(((2R,7aS)-2-fluorotetrahydro-1H-pyrrolizin-7a(5H)-yl)methoxy)pyrido[4,3-d]pyrimidin-4-yl)piperidin-4-yl)acetonitrile], the IC50 is 81 nM.

For `N#C[C@H]1CCCN(c2nc(OC[C@@]34CCCN3C[C@H](F)C4)nc3c(F)c(-c4ccc(F)c5sc(N)nc45)c(C(F)(F)F)cc23)C1` [Example 77, (3S)-1-(7-(2-amino-7-fluorobenzo[d]thiazol-4-yl)-8-fluoro-2-(((2R,7aS)-2-fluorotetrahydro-1H-pyrrolizin-7a(5H)-yl)methoxy)-6-(trifluoromethyl)quinazolin-4-yl)piperidine-3-carbonitrile], the IC50 amounted to 17 nM.

Compound `Nc1nc2c(-c3c(C(F)(F)F)cc4c(N[C@H]5C[C@H](O)C5)nc(OC[C@@]56CCCN5C[C@H](F)C6)nc4c3F)ccc(F)c2s1` [Example 12, (trans)-3-((7-(2-amino-7-fluorobenzo[d]thiazol-4-yl)-8-fluoro-2(((2R,7aS)-2-fluorotetrahydro-1H-pyrrolizin-7a(5H)-yl)methoxy)-6-(trifluoromethyl)quinazolin-4-yl)amino)cyclobutan-1-ol] had an IC50 of 3.7 nM.
